Laboratory results from patent US10561711B2, “Rapid action insulin formulations and pharmaceutical delivery systems” (Thermalin Inc., priority 2014, dated 2020).
Where two headings read alike, the source gives them in different places.

Assay: Migration through porcine skin tissue under electric field (modified Franz apparatus)
Protocol: The effect of an electric field was explored on migration through the subcutis using fresh porcine abdominal skin tissue obtained from local abattoirs. To do this, a modified Franz apparatus was developed that could test up to 12 samples simultaneously (FIGS. 12A, 12B). Full-thickness porcine skin tissue plugs that were three cm in diameter were placed subcutis-down in individual wells over reservoirs containing cathodes below 2 ml of test solution. The device was then inverted to run the experiments.
Tissue and test solution were maintained at 37° C. using a heat lamp and monitored with a digital thermometer probe placed between the plexiglass plates, adjacent to the tissues. Anodes were inserted into conductive paste placed on the epidermal surface. Utilizing multiple electrophoresis power sources, 10V or 20V of electromotive potential was then run across each cathode-anode pair for one hour.
We tested the apparatus using a solution of bromophenol blue (BPB), a 0.67 kDa dye that appears blue above pH 4.6 and carries a negative charge near neutral pH similar to that of insulin. […]
One microscope slide was stained with H&E; an adjacent slide was stained with a Guinea pig polyclonal antibody (Ab) (Abcam ab7842), which was detected by a goat anti-Guinea pig polyclonal IgG H&L (Alexa Fluor® 594; Abcam ab150188).

Row | Compound | migration through porcine skin layers with voltage applied (10 V, 37° C., about one hour, test solution on subcutaneous surface) | migration through porcine skin layers with voltage applied
1 | O=S1(=O)OC(c2cc(Br)c(O)c(Br)c2)(c2cc(Br)c(O)c(Br)c2)c2ccccc21 [bromophenol blue] | dye penetrated through the subcutis in voltage-treated tissue | 
2 | Cy5-insulin: human insulin conjugated to cyanine-5-NHS-ester fluorophore (P/N IS1-S5-1, Nanocs, Inc.) |  | migration of the fluorescence-tagged insulin through the full skin thickness
